Results reported in US8647835B2, “Methods for separation, characterization and/or identification of microorganisms using spectroscopy” (bio Mérieux, Inc., priority 2008, dated 2014).

How the values were obtained:
Format in all cases: cell-based
[1] = tested on: Streptococcus pneumoniae, strain WM-43; experiment: Intrinsic fluorophores of S. pneumoniae pellet after detergent lysis buffer; settings: for Flavin/NADH surrogate marker for viability: S. pneumoniae cell pellet; for Flavin / NADH / Tryptophan: intrinsic fluorophore level of S. pneumoniae cell pellet, detergent in 0.3M CAPS, pH 11.7; for NADH/Flavin: ratio of fluorescence signals of S. pneumoniae cell pellet
Method: (§1) Lysis buffers were prepared containing detergents of differing structure and lytic activity in a base buffer formulation of 0.3M CAPS, pH 11.7. These lysis buffers were functionally assessed using positive blood culture broth containing a clinical microorganism strain known to be sensitive to detergents and alkaline pH conditions, Streptococcus pneumoniae, strain WM-43. Parameters evaluated were microbial intrinsic fluorescence levels (Excitation-Emission Matrix spectra), separation efficiency, appearance of isolated microbial pellet, and Gram stain characteristics and viability of microorganisms recovered from the pellet beneath the density cushion.
(§2) The procedure was performed as follows:
(§3) Mix 2 parts of positive broth with 1 part of test lysis buffer, incubate in a 37 C water bath for 1 minute to lyse blood cells, then layer 0.5 mL of lysate over 0.2 mL of density cushion (14% w/v Iohexyl+1.93% w/v NaCl+10 mM Hepes, pH 7.4) dispensed into a 2-piece optical separation tube which was then hermetically sealed with a screw-cap. After centrifuging the tube in an Eppendorf® 5417R micrcentrifuge fitted with a A-8-11 swing out rotor (Eppendorf, New York) for 2 minutes at 10,000 rpm, the tube was placed into a custom-built adapter which coupled the base of the tube directly to a 400 micron fiber optic probe connected to a spectrofluorimeter (Fluorolog® 3 (HORIBA Jobin Yvon Inc., New Jersey), and a complete EEM scan was taken (Ex 260-850 nm; Em 260-1100 nm; every 5 nm). Following the scan, the supernatant was removed and the microbial pellet resuspended in 0.5 mL of Tryptic Soy Broth (TSB). Smears of the suspensions were prepared for Gram staining and twenty microliters of a 1:100 dilution were plated onto Sheep Blood Agar plates for viability estimation on a scale of NG (no growth) to 4+ (maximal growth).
The effect of the test detergents on the level of intrinsic fluorophores present within the S. pneumoniae cell pellet is shown in Table 5. As taught by the results presented in Example 3, the ratio of Flavin to NADH fluorescence is an excellent indicator of this sensitive microbe's health. Low ratios are associated with reduced microbial viability, such as observed with n-octyl glucoside and CHAPS detergents. The four groups represented in Table 5 fall into categories that directly correlate with the alterations observed in Gram reactivity of the S. pneumoniae cells recovered from the pellet (Table 4).

[2] = tested on: Streptococcus pneumoniae, strain WM-43; experiment: Gram stain and viability of S. pneumoniae recovered from pellet after detergent lysis buffer; settings: for Viability of Pellet: 1:100 dilution plated onto Sheep Blood Agar, scale NG to 4+
Method: as §1, §2, §3

[3] = tested on: S. pneumoniae strain, WM43; experiment: Viability of recovered S. pneumoniae with lysis buffer / density cushion combinations (Example 7); settings: irrespective of the makeup of the density cushion

| Molecule | Flavin/NADH surrogate marker for viability [1] | Flavin [1] | NADH [1] | Tryptophan [1] | NADH/Flavin [1] | Viability of Pellet [2] | Gram Stain of Pellet, Bacteria (cocci): Gram positive ([2]; detergent at table concentration (0.45-3.0%) in 0.3M CAPS, pH 11.7, 1 minute 37 C, 'No organisms seen' applies to all cocci) | Gram Stain of Pellet, Bacteria (cocci): Gram negative ([2]; detergent at table concentration (0.45-3.0%) in 0.3M CAPS, pH 11.7, 1 minute 37 C) | viability of the recovered S. pneumoniae cells [3] | effect on Gram reaction / Gram reactivity of S. pneumoniae isolate ([2]; desired lysis conditions of Example 6) |
| --- | --- | --- | --- | --- | --- | --- | --- | --- | --- | --- |
| CCCCCCCCO[C@@H]1O[C@H](CO)[C@@H](O)[C@H](O)[C@H]1O [Detergent 1, n-octyl glucoside] | Low ratios | 71,678 | 33,268 | 606,171 | 0.5 | No growth | No organisms seen |  |  |  |
| C[C@H](CCC(=O)NCCC[N+](C)(C)CCCS(=O)(=O)[O-])[C@H]1CC[C@H]2[C@@H]3[C@H](O)C[C@@H]4C[C@H](O)CC[C@]4(C)[C@H]3C[C@H](O)[C@]12C [Detergent 2, CHAPS] | Low ratios | 77,403 | 55,976 | 607,343 | 0.7 | Scant |  | Rare Gram |  |  |
| CCCCCCCCCCCCOCCOCCOCCOCCOCCOCCOCCOCCOCCO [Detergent 6, nonaethylene glycol monododecyl ether] |  |  |  |  | 34.5 |  |  |  | not as high | relatively minor effect |
| (Octylphenoxy)polyethoxyethanol [Detergent 4] |  | 38,703 | 1,300,815 | 1,019,649 | 33.6 |  |  |  |  |  |
| polyoxyethylene (20) oleyl ether [Detergent 12] | significant improvement | 29,781 | 1,703,221 | 1,047,866 | 57.2 |  |  |  |  |  |
